The values below are quoted from earlier work in US6461603B2, “Water-soluble polymer conjugates of artelinic acid” (Shearwater Corporation, priority 2000, dated 2002).

For `C[C@H]1[C@@H](OCc2ccc(C(=O)O)cc2)O[C@@H]2O[C@]3(C)CC[C@H]4[C@H](C)CC[C@@H]1[C@@]24OO3` [sodium artelinate], the “solubility at physiological pH” value (physiological pH, higher pH required for desirable solubility) is “not highly soluble”. Take `C[C@@H]1CC[C@H]2[C@@H](C)C(OCc3ccc(C(=O)O)cc3)O[C@@H]3O[C@]4(C)CC[C@@H]1[C@]32OO4` (some centres unmarked) [artelinic acid]: the water solubility entry (background statement) is “low”.
